Experiments:
MDA-MB-231 cells = test: MTT cytotoxic assay, MDA-MB-231; format: cell-based, human; conditions: Homo sapiens, MDA-MB-231, 72 h
Method: (§1) Human breast cancer cell line (MDA-MB-231), cervical carcinoma cell line (HeLa), the liver cancer cell line (SMMC-7721) and normal hepatocyte cell line (QSG-7701) were maintained in Dulbecco Modified Eagle Medium (DMEM) containing 4.0 mM L-Glutamine and 4500 mg/L Glucose supplemented with 10% (v/v) foetal bovine serum (FBS) and 100 U/mL penicillin/streptomycin at 37 °C in humidified atmosphere of 5% CO2 and 95% air.
(§2) Exponentially growing MDA-MB-231, Hela and SMMC-7721 cell lines were seeded into 96-well plate for 100 μL and treated with different concentrations of the synthetic compounds for 72 h, and then 10 μL of MTT (10 mg/mL) was added and incubation for 3 ∼ 4 h at 37 °C. The generated purple formazan crystals from viable can be dissolved by adding 100 μL DMSO. The plates were swirled gently for 5 min and quantified by measuring the OD of the plates at the wavelength of 540 nm. Each concentration was repeated in three wells and the same experimental condition was provided for all compounds. The results were expressed as IC50 values with standard deviations, which was defined as the concentration at which 50% survival of cells was discerned. Etoposide was co-assayed as positive control.
(§3) The in vitro cytotoxic activity of derivatives 3a–d, 4a–h, 5a–h, and 6a–h were evaluated by MTT assay against human breast cancer cell line (MDA-MB-231), cervical carcinoma cell line (HeLa), hepatocarcinoma cell line (SMMC-7721) and human normal hepatocyte cell line (QSG-7701). The anticancer drug etoposide was co-assayed as the positive control. All tested compounds were dissolved in DMSO and the stock solutions were diluted by DMEM medium before treatment of the cultured cells.

HeLa cells [1] = test: JC-1 mitochondrial membrane potential assay; format: cell-based, human; conditions: 24 h, control 7.59
Method: The JC-1 mitochondrial membrane potential assay kit (Keygene Biotech., Nanjing, China) was employed to measure mitochondrial depolarisation in HeLa cells. Briefly, cells cultured in six-well plates after indicated treatments by compound 4d were incubated with an equal volume of JC-1 staining solution (5 μg/mL) at 37 °C for 20 min and rinsed twice with PBS. Mitochondrial membrane potentials were monitored by determining the relative amounts of dual emissions from mitochondrial JC-1 monomers or aggregates using flow cytometry (Becton-Dickinson FACSCalibur, New York, NY, USA). Mitochondrial membrane depolarisation is indicated by an increase in the percentage of cells with low ΔΨm (green fluorescence and lower right quadrant) compared with cells with high ΔΨm (red fluorescence and upper right quadrant).
As a kind of important organelle, Mitochondria play indispensable roles not only on supplying metabolic energy in the form of ATP, but also on regulating the signal transmission during the apoptosis of cancer cells. In addition, the mitochondrial dysfunction can be aroused under high ROS exposure, leading to the collapse of mitochondrial membrane potential (ΔΨm), which is a characteristic phenomenon of early apoptosis. Loss of ΔΨm can be detected using the fluorescent cationic dye JC-1, which spontaneously forms red fluorescent dimers (J aggregates) under high ΔΨm, whereas its monomeric form showing green fluorescence is prevalent in cells with low ΔΨm. Green and red fluorescence can be observed at 527 and 590 nm, respectively. Thus, changes in the green/red fluorescence ratio reflect the variation in ΔΨm, which can be quantitatively analysed by flow cytometry.

SMMC-7721 cells = test: MTT cytotoxic assay, SMMC-7721; format: cell-based; conditions: Homo sapiens, 72 h
Method: as §1, §2, §3

HeLa cells [2] = test: Cell cycle analysis (PI staining, flow cytometry); format: cell-based, human; conditions: 0.2 μM, 48 h
Method: Cell cycle distributions in HeLa cells were determined through PI staining and analysed by flow cytometry. HeLa cells were seeded into a six-well plate at 5 × 10^5 cell/mL and treated with different concentrations of compound 4d for 48 h. After treatment, cells were detached with 0.25% trypsin, harvested by centrifugation, washed twice with ice-cold PBS and then fixed and permeabilised with ice-cold 70% ethanol at 4 °C overnight. Ethanol was removed and the cells were washed twice with ice-cold PBS. After this, the cells were treated with 100 μL of RNase (100 μg/mL) at 37 °C for 30 min, followed by incubation with 400 μL of DNA staining solution propidium iodide (PI) (1 mg/mL) in the dark at 4 °C for 30 min. The samples were analysed by a flow cytometer (Becton-Dickinson FACSCalibur, Totowa, NJ, USA) and data were analysed using the FlowJo software (Becton-Dickinson & Co, Totowa, NJ, USA).
Cell cycle distribution in HeLa cells was examined to determine whether or not compound 4d inhibited the proliferation of these cells through cell cycle arrest. HeLa cells were treated with different concentrations of compound 4d (0, 0.05, 0.1, and 0.2 μM) for 48 h. Cell cycle distribution was investigated by flow cytometric analysis after staining the DNA of the treated cells by PI. […] This phenomenon was accompanied by a decrease in the population of cells in G2/M phase.

[3] = tested on: p90RSK, p-p90RSK, BAD, BIM in HeLa cells; test: Western blot of downstream proteins of ERK; format: cell-based, human; conditions: 0.05, 0.1, 0.2 μM, 48 h
Method: (§4) HeLa cells were seeded at a density of 5 × 10^6 cells per well and attached for 8 h, and then treated with different concentrations of compound 4d for 48 h. After the treatment, the cells were harvested and washed twice with PBS. The harvested cells were lysed with radio-immunoprecipitation assay (RIPA) lysis buffer (Beyotime Biotech., Nantong, China) with 1% cocktail (Sigma-Aldrich, St. Louis, MO, USA). Whole-cell protein lysates were prepared and centrifuged at 12,000 rpm for 10 min at 4 °C. The total proteins were determined using Bradford reagent (Bio-Rad Laboratories, Inc., Hercules, CA, USA). Exactly 40 μg of protein per lane was separated through sodium dodecyl sulphate-polyacrylamide gel electrophoresis and then transferred onto a polyvinylidene difluoride membrane (Millipore, Bedford, MA, USA). The membranes were incubated with each antibody and detected through immunoblot analysis. All of the antibodies were purchased from Cell signalling Technology, Inc. (Boston, MA, USA) and diluted in accordance with the manufacturer’s instruction. Proteins were visualised using a C-Digit® imaging system (LI-COR, Lincoln, NE, USA).
In addition, the effect of compound 4d on the downstream proteins of ERK (p90RSK, BAD, and BIM) was also investigated by western blot analysis. It is known that activated ERK1/2 (p-ERK1/2) directly phosphorylates and activates p90RSK, which subsequently decreases the level of pro-apoptotic BH3-only proteins BIM and BAD and inhibits their apoptosis-promoting activity.

[4] = tested on: ERK1/2 and pERK1/2 in HeLa cells; test: Western blot of ERK and pERK; format: cell-based, human; conditions: 48 h
Method: as §4
Subsequently, to evaluate the MEK inhibition of compound 4d in cancer cells, western blot analyses were also carried out to evaluate the expression levels of ERK and phosphorylated ERK (pERK) proteins in compound 4d-treated HeLa cells.

## CC(=O)NNC(=O)C12CCC(C)C(C)C1C1=CCC3C4(C)Cc5cc6cc(Cl)ccc6nc5C(C)(C)C4CCC3(C)C1(C)CC2 (stereo not shown) [Compound 4d, N-[5′-chloro-ursa-12-en-(2,3)-quinoline-28-oyl]-acetohydrazide]
MDA-MB-231 cells
  IC50: 0.12 ± 0.01 µM
HeLa cells [1]; 0.05 μM
  Cells with low ΔΨm (green fluorescence, lower right quadrant): 36.33%
HeLa cells [1]; 0.1 μM
  Cells with low ΔΨm (green fluorescence, lower right quadrant): 54.08%
HeLa cells [1]; 0.2 μM
  Cells with low ΔΨm (green fluorescence, lower right quadrant): 70.83%
SMMC-7721 cells
  IC50: 0.34 ± 0.03 µM
HeLa cells [2]; control 25.95
  population of cells in G2/M phase: 8.51%
HeLa cells [2]; control 48.32
  population of cells in G0/G1 phase: 63.75%
[3]
  expression level of p90RSK: significantly decreased
  expression level of p-p90RSK: significantly decreased
  level of BAD: upregulated
  level of BIM: upregulated
[4]; 0.05 μM
  expression level of pERK1/2, % of the control group: 74.7%
[4]; 0.1 μM
  expression level of pERK1/2, % of the control group: 41.3%
[4]; 0.2 μM
  expression level of pERK1/2, % of the control group: 29.5%
[4]; 0.05, 0.1, 0.2 μM
  expression levels of ERK1/2: slightly decreased
  expression levels of pERK1/2: significantly downregulated
